Structures can show the parent of a compound that is named as a salt.
Tests used:
lung gene expression = test: Affymetrix GeneChip lung gene expression in S. Pneumoniae-infected mice; assay type: in vivo, C57BL/6 mice; details: 0.2 mg/kg intranasal twice daily; lungs at various timepoints after S. Pneumoniae-infection; genes significantly altered (minimum 1.5 fold-change; p<0.05) compared to vehicle controls; n=6
Experimental: (§1) Germ-free C57BL/6 male and female mice aged 10-12 weeks were intranasally administered with 0.2%Tween-80/saline vehicle or 0.2 mg/kg micronized 6-(1H-indol-4-yl)-4-(5-{[4-(1-methylethyl)-1-piperazinyl]methyl}-1,3-oxazol-2-yl)-1H-indazole hydrochloride in the same vehicle. Compound dosing was carried out twice daily for eleven days under anaesthesia using 3% isoflurane for induction and 2% isoflurane for maintenance. At the start of day two, and one hour after administering 6-(1H-indol-4-yl)-4-(5-{[4-(1-methylethyl)-1-piperazinyl]methyl}-1,3-oxazol-2-yl)-1H-indazole hydrochloride or vehicle, mice were anaesthetized with isoflurane as above and infected intranasally with 1×10^7 CFU of S. pneumoniae strain TIGR4. S. Pneumoniae was obtained and prepared as described previously (see, for example, Infect. Immun. December 2011; 79(12): 4965-4976) and given in an inoculum of 50 μl PBS per mouse. Mice were monitored three times daily and assessed using a defined mortality-endpoint, where mice displaying three or more of the limiting clinical signs stated in Home Office Project Licence PPL 70/7661 were culled.
Each band corresponds to a single probe and intensity signifies fold change, as indicated in the legend.

[1] = tested on: S. pneumoniae strain TIGR4; test: Streptococcus pneumoniae infection in mice, survival by defined mortality-endpoint; assay type: in vivo, C57BL/6 mice; details: 0.2 mg/kg micronized, intranasal, twice daily for eleven days; infected intranasally with 1×10^7 CFU; compared to vehicle controls; n=60; Mantel-Cox test **p<0.005
Experimental: as §1

Structure (SMILES): CC(C)N1CCN(Cc2cnc(-c3cc(-c4cccc5[nH]ccc45)cc4[nH]ncc34)o2)CC1 [6-(1H-Indol-4-yl)-4-(5-{[4-(1-methylethyl)-1-piperazinyl]methyl}-1,3-oxazol-2-yl)-1H-indazole hydrochloride]
- lung gene expression (lung gene expression): altered lung gene expression
- defined mortality-endpoint (percentage survival) [1]: reduced a defined mortality-endpoint

— US20160256466A1, “PI3K INHIBITOR FOR TREATMENT OF RESPIRATORY DISEASE” (GLAXOSMITHKLINE INTELLECTUAL PROPERTY DEVELOPMENT LIMITED, priority 2013, published 2016)
